Laboratory results from patent US11684638B2, “Targeted delivery system, system components, and methods” (REGENTS OF THE UNIVERSITY OF MINNESOTA, priority 2016, dated 2023).
Each block holds one molecule with its values, some of them ahead of it.

Key:
MSCs [1] = system: MSCs
Method: Various Ac4ManNAz concentrations were evaluated as follows. MSCs were seeded onto 96-well plate at a density of 1.5×10^3 cells/well in 150 μL of MSCM supplemented with 0, 1 μM, 5 μM, 10 μM, 20 μM, 50 μM, or 100 μM final concentration of Ac4ManNAz. After three days of incubation, the cells were washed twice with DPBS and treated with sulforhodamine B dibenzocyclooctyl (DBCO-sulforhodamine B) (20 μM final concentration) for one hour. Cells were rinsed five times with DPBS and images were taken using a fluorescence microscope. For quantitative analysis, cells treated with Ac4ManNAz were stained with DBCO-carboxyrhodamine and the fluorescence intensity (λex: 485 and λem: 528 nm) was measured using plate reader (FLx800 microplate fluorescence reader, BioTek Instruments, Inc., Winooski, Vt., USA).
Similarly, various Ac4ManNAz incubation times were evaluated by culturing MSCs in 20 μM Ac4ManNAz for different incubation times. The cells were treated as before for microscopy or quantitation of available azide groups. The treatments were staggered to perform the final analysis at the same time to maintain the cell number at the time of analysis.

MSCs [2] = assay: MSC cell viability, MTS assay; format: cell-based, human
Method: Cell viability was determined by MTS assay at 3 days, 5 days, and 7 days. After incubation for the designated time period, Ac4ManNAz-containing medium was exchanged with 500 μL of fresh growth medium and 100 μL of the MTS/PMS solution was added to each well. Cells were further incubated for one hour at 37° C. and soluble formazan produced by the live cells was measured at 490 nm using a microplate reader. Cells without Ac4ManNAz treatment were used as a control.

[3] = system: subcutaneous A549-Luc tumors injected with MSC-Az or control MSC; assay: In vivo click chemistry with intravenous DBCO-Cy5.5; design: species or system athymic nude mice
Method: A549-Luc lung tumors were developed in athymic nude mice such that each animal has two tumors, one on each side of the abdomen. When the tumors reached about 100 mm^3, the animals received intratumoral injection (5×10^5 cells/100 μL) of control MSCs in one tumor and MSC-Az in the other tumor of the same animal. One hour following MSC injection, 5 μg of DBCO-Cy5.5 in 100 μL DPBS was injected intravenously per mice. DBCO-Cy5.5 binding to MSC-Az was monitored by imaging at different time intervals (0.5 hour, 1 hour, 5 hours, or 24 hours) using an IVIS Spectrum live animal imager (Xenogen Corp., Alameda, Calif.).

[4] = system: orthotopic ovarian tumors; assay: Antitumor efficacy of glycoengineered MSC pre-incubated with DBCO-functionalized paclitaxel nanoparticles (FIG. 10); format: in vivo, mice; settings: Kaplan-Meier; intraperitoneal; 2×10^6 MSC-Az; ABRAXANE at 40 mg/kg paclitaxel on day 0, 4, 8
Method: FIG. 10. Antitumor efficacy of glycoengineered MSC pre-incubated with DBCO-functionalized paclitaxel nanoparticles.
Saline-treated animals were used as […] control.

[5] = system: platinum-resistant C200 ovarian cancer cells; assay: Cytotoxicity in co-culture […] assay (FIG. 11); format: cell-based
Method: FIG. 11. IC50 of glycoengineered MSCs in platinum-resistant C200 ovarian cancer cells in co-culture using […] assay (Corning, Inc., Tewksbury, Mass.). The cytotoxic potential of glycoengineered MSCs was determined by co-culturing with C200 cells using a […] assay at 72 hours. For cytotoxicity assessment, C200 cells (20,000/well) were seeded in lower chamber of 24 well […] plate with different concentrations of glycoengineered MSCs in upper chamber. […] However, when incubated at 1:1 ratio of C200 to glycoengineered-MSCs, 75% cytotoxicity was observed.

SMILES: CC(=O)OC[C@H]1OC(OC(C)=O)[C@@H](NC(=O)CN=[N+]=[N-])[C@@H](OC(C)=O)[C@@H]1OC(C)=O (some centres unmarked) [Ac4ManNAz, N-azidoacetylmannosamine-tetraacylated]
azide expression on MSC surface by fluorophore labeling (MSCs [1]; 20 μM in culture media): highest expression levels
surface coverage of azide groups (MSCs [1]; three days of incubation): highest surface coverage of azide groups
cell viability of MSCs (MSCs [2]; 100 μM after five days of incubation): reduced
viability of MSCs (MSCs [2]; up to 50 μM for seven days): unaffected

MSC-Az associated fluorescence in tumor ([3]; 24 hours post injection): found even at 24 hours
SMILES: CCN1/C(=C/C=C/C=C/C2=[N+](CCCCCC(=O)NCCC(=O)N3Cc4ccccc4C#Cc4ccccc43)c3ccc4c(S(=O)(=O)[O-])cc(S(=O)(=O)O)cc4c3C2(C)C)C(C)(C)c2c1ccc1c(S(=O)(=O)O)cc(S(=O)(=O)O)cc21 [DBCO-Cy5.5]
fluorescent label in tumors ([3]; one hour post intravenous dosing): detected only in the tumors injected with MSC-Az

SMILES: CC(=O)O[C@H]1C(=O)[C@@]2(C)[C@H]([C@H](OC(=O)c3ccccc3)[C@]3(O)C[C@H](OC(=O)[C@H](O)[C@@H](NC(=O)c4ccccc4)c4ccccc4)C(C)=C1C3(C)C)[C@]1(OC(C)=O)CO[C@@H]1C[C@@H]2O [PTX solution, paclitaxel]
median survival [4]: 50 days
IC50 [5]: 4.16 nM
